Holding throughout (format): functional, cell-based
Assay [1] is described as follows: Cytotoxicity against Homo sapiens (human) LS180 cells after 96 hr by MTT assay. To be noted: LS180, 96 h. For orientation: Formazan colour is commonly taken as a measure of viable cells.
The subject of another assay is MCF7. In words: Cytotoxicity against Homo sapiens (human) MCF7 cells after 96 hr by MTT assay. As to conditions: MCF7, 96 h.
The subject of a further assay is Raji. In words: Cytotoxicity against Homo sapiens (human) Raji cells after 96 hr by MTT assay.
In another assay the test system is HeLa. In words: Cytotoxicity against Homo sapiens (human) HeLa cells after 96 hr by MTT assay.

Bounds are passed on as bounds.

By IC50 is commonly meant the point on the concentration scale where inhibition reaches its midpoint. With `O=C1CCCC2=C1C(c1cccc(Br)c1)c1c(c3ccccc3oc1=O)O2` (stereo not drawn), the IC16 in assay [1] was 35.1 µM; with MCF7 it was more than 50 µM; in the assay on Raji, 11.3 µM; in the assay on HeLa it was 21.9 µM. In addition, the IC50 in assay [1] is 83.8 µM; in the assay with MCF7 it was more than 50 µM; with Raji, 49.3 µM; in the assay with HeLa it was 61.6 µM.

Turning to `O=C1CCCC2=C1C(c1ccc(Br)cc1)c1c(c3ccccc3oc1=O)O2` (stereo not drawn), the IC16 in assay [1] is more than 100 µM; with MCF7 it was 15.7 µM; in the assay with Raji, 22.4 µM; in the assay on HeLa, more than 100 µM. Also, the IC50 was more than 100 µM in assay [1], 49.3 µM in the assay on MCF7, 82.4 µM in the assay with Raji and more than 100 µM with HeLa.

Take `O=C1CCCC2=C1C(c1ccccc1Cl)c1c(c3ccccc3oc1=O)O2` (stereo not drawn): the IC16 (in assay [1]; in the assay on MCF7; in the assay on Raji; in the assay with HeLa) was more than 25 µM in each case. Besides, the IC50 (in assay [1]; with MCF7; in the assay on Raji; in the assay with HeLa) was more than 25 µM in each case.

With `O=C1CCCC2=C1C(c1cccc(Cl)c1)c1c(c3ccccc3oc1=O)O2` (stereo not drawn), the IC16 in assay [1] is more than 50 µM; in the assay with MCF7, more than 50 µM; in the assay on Raji, 23.9 µM; in the assay on HeLa, more than 50 µM. Besides, the IC50 (in assay [1]; in the assay with MCF7; in the assay on Raji; in the assay on HeLa) was more than 50 µM throughout.

For the compound `O=C1CCCC2=C1C(c1ccc(Cl)cc1)c1c(c3ccccc3oc1=O)O2` (stereo not drawn), the IC16 was more than 100 µM in assay [1], 54.7 µM with MCF7, 59 µM with Raji and 17.9 µM in the assay with HeLa. The IC50 in assay [1] is more than 100 µM; in the assay with MCF7 it was more than 100 µM; in the assay on Raji, more than 100 µM; in the assay on HeLa, 55.8 µM.

For `COc1ccccc1C1C2=C(CCCC2=O)Oc2c1c(=O)oc1ccccc21` (stereo not drawn), the IC16 was 52.1 µM in assay [1], more than 100 µM in the assay on MCF7, 30.3 µM in the assay on Raji and 37.6 µM in the assay on HeLa. The IC50 in assay [1] was more than 100 µM; with MCF7, more than 100 µM; with Raji it was more than 100 µM; in the assay with HeLa it was 74.3 µM.

With `COc1cccc(C2C3=C(CCCC3=O)Oc3c2c(=O)oc2ccccc32)c1` (stereo not drawn), the IC16 in assay [1] was found to be 48.9 µM; in the assay with MCF7, 22.2 µM; in the assay on Raji it was 13.1 µM; in the assay with HeLa it was 25.3 µM. The IC50 in assay [1] is 99.7 µM; in the assay on MCF7, 58.6 µM; with Raji it was 49.2 µM; in the assay on HeLa it was 89.9 µM.

With `COc1ccc(C2C3=C(CCCC3=O)Oc3c2c(=O)oc2ccccc32)cc1` (stereo not drawn), the IC16 in assay [1] turned out to be 100 µM; with MCF7, 35.9 µM; with Raji it was 33.1 µM; in the assay on HeLa it was 48.7 µM. For the same compound, the IC50 was more than 100 µM in assay [1], 76.3 µM in the assay with MCF7, more than 100 µM in the assay on Raji and 97.9 µM in the assay with HeLa.

In the case of `Cc1ccccc1C1C2=C(CCCC2=O)Oc2c1c(=O)oc1ccccc21` (stereo not drawn), the IC16 is 53.8 µM in assay [1], 30.9 µM in the assay with MCF7, 26.4 µM in the assay on Raji and 42.9 µM in the assay with HeLa. Also, the concentration for half-maximal inhibition (IC50) was more than 100 µM in assay [1], more than 100 µM with MCF7, 79.7 µM in the assay with Raji and more than 100 µM with HeLa.

With `Cc1cccc(C2C3=C(CCCC3=O)Oc3c2c(=O)oc2ccccc32)c1` (stereo not drawn), the IC16 in assay [1] is 47 µM; in the assay on MCF7, 42.8 µM; in the assay with Raji, 26.7 µM; in the assay with HeLa it was 41.7 µM. The IC50 in assay [1] is more than 100 µM; with MCF7 it was more than 100 µM; in the assay with Raji it was 72.7 µM; in the assay on HeLa it was more than 100 µM.

Turning to `Cc1ccc(C2C3=C(CCCC3=O)Oc3c2c(=O)oc2ccccc32)cc1` (stereo not drawn), the IC16 in assay [1] is 74.2 µM; in the assay with MCF7, 49.2 µM; with Raji it was 8.5 µM; in the assay with HeLa, 38.8 µM. Further, the IC50 is more than 100 µM in assay [1], more than 100 µM in the assay with MCF7, 78.9 µM in the assay with Raji and more than 100 µM in the assay with HeLa.

Consider `O=C1CCCC2=C1C(c1ccccc1[N+](=O)[O-])c1c(c3ccccc3oc1=O)O2` (stereo not drawn), for which the IC16 was more than 100 µM in assay [1], 28 µM in the assay on MCF7, 14.9 µM with Raji and 18.1 µM in the assay with HeLa. Further, the IC50 in assay [1] was more than 100 µM; with MCF7, 59.5 µM; in the assay on Raji, 54.8 µM; in the assay with HeLa it was more than 100 µM.

On to `O=C1CCCC2=C1C(c1cccc([N+](=O)[O-])c1)c1c(c3ccccc3oc1=O)O2` (stereo not drawn), for which the IC16 turned out to be 60.9 µM in assay [1], 23.1 µM in the assay with MCF7, 55.8 µM with Raji and 26.2 µM in the assay on HeLa. Further, the IC50 in assay [1] was more than 100 µM; in the assay on MCF7, 80.3 µM; with Raji it was more than 100 µM; in the assay on HeLa, 63.1 µM.

As for `O=C1CCCC2=C1C(c1ccc([N+](=O)[O-])cc1)c1c(c3ccccc3oc1=O)O2` (stereo not drawn), the IC16 is 32.6 µM in assay [1], 26 µM in the assay on MCF7, 47.7 µM in the assay on Raji and more than 100 µM in the assay on HeLa. For the same compound, the IC50 is 75.7 µM in assay [1], 61.7 µM in the assay with MCF7, more than 100 µM with Raji and more than 100 µM in the assay with HeLa.

On to `O=C1CCCC2=C1C(c1ccccc1Br)c1c(c3ccccc3oc1=O)O2` (stereo not drawn), for which the IC16 (in assay [1]; with MCF7; in the assay on Raji; with HeLa) was more than 100 µM each time. In addition, the IC50 (in assay [1]; in the assay on MCF7; in the assay with Raji; in the assay on HeLa) was more than 100 µM each time.

On to `COc1cccc2c1C(=O)c1c(O)c3c(c(O)c1C2=O)C[C@@](O)(C(=O)CO)C[C@@H]3O[C@H]1C[C@H](N)[C@H](O)[C@H](C)O1` [DOXORUBICIN], for which the IC16 in assay [1] was 0.03 µM; in the assay on MCF7, 0.051 µM; in the assay with Raji, 0.012 µM; in the assay on HeLa it was 0.015 µM. For the same compound, the IC50 in assay [1] is 0.13 µM; in the assay with MCF7, 0.211 µM; with Raji it was 0.039 µM; with HeLa it was 0.053 µM.

(Values after ChEMBL document CHEMBL3044684, “Synthesis and cytotoxic activity of novel benzopyrano[3,2-c]chromene-6,8-dione derivatives” (Med Chem Res, 2011).)
